Measured values from PMC11576293, “New series of 4,6-diaryl pyrimidines: facile synthesis and antiproliferative activity as dual EGFR/VEGFR-2 inhibitors” (Frontiers in Chemistry, 2024).

Tests used:
HT29 = experiment: NCI-60 single-dose screen; assay type: cell-based; conditions: Homo sapiens, HT-29, single dose 10 µM, '-' = no inhibition, read-out: % Growth Inhibition
In short: (§1)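 Single concentration (10 μM) per compound, assayed by the NCI DTP against its 60-line panel covering leukemia, lung, colon, CNS, melanoma, ovarian, renal, prostate and breast cancers.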

UACC-62 = experiment: NCI-60 single-dose screen; assay type: cell-based; conditions: Homo sapiens, single dose 10 µM, '-' = no inhibition, read-out: % Growth Inhibition
In short: as §1

HOP-62 = experiment: NCI-60 single-dose screen; assay type: cell-based; conditions: Homo sapiens, single dose 10 µM, '-' = no inhibition, read-out: % Growth Inhibition
In short: as §1

SK-OV-3 = experiment: NCI-60 single-dose screen; assay type: cell-based; conditions: Homo sapiens, single dose 10 µM, '-' = no inhibition, read-out: % Growth Inhibition
In short: as §1

CAKI-1 = experiment: NCI-60 single-dose screen; assay type: cell-based; conditions: Homo sapiens, single dose 10 µM, '-' = no inhibition, read-out: % Growth Inhibition
In short: as §1

U251 = experiment: NCI-60 single-dose screen; assay type: cell-based; conditions: Homo sapiens, U-251, single dose 10 µM, '-' = no inhibition, read-out: % Growth Inhibition
In short: as §1

DU-145 = experiment: NCI-60 single-dose screen; assay type: cell-based; conditions: Homo sapiens, single dose 10 µM, '-' = no inhibition, read-out: % Growth Inhibition
In short: as §1

SK-MEL-2 = experiment: NCI-60 single-dose screen; assay type: cell-based; conditions: Homo sapiens, single dose 10 µM, '-' = no inhibition, read-out: % Growth Inhibition
In short: as §1

M14 = experiment: NCI-60 single-dose screen; assay type: cell-based; conditions: Homo sapiens, single dose 10 µM, '-' = no inhibition, read-out: % Growth Inhibition
In short: as §1

LOX IMVI = experiment: NCI-60 single-dose screen; assay type: cell-based; conditions: Homo sapiens, single dose 10 µM, '-' = no inhibition, read-out: % Growth Inhibition
In short: as §1

SF-295 = experiment: NCI-60 single-dose screen; assay type: cell-based; conditions: Homo sapiens, single dose 10 µM, '-' = no inhibition, read-out: % Growth Inhibition
In short: as §1

HCC-2998 = experiment: NCI-60 single-dose screen; assay type: cell-based; conditions: Homo sapiens, single dose 10 µM, '-' = no inhibition, read-out: % Growth Inhibition
In short: as §1

T-47D = experiment: NCI-60 single-dose screen; assay type: cell-based; conditions: Homo sapiens, T47D, single dose 10 µM, '-' = no inhibition, read-out: % Growth Inhibition
In short: as §1

NCI-H522 = experiment: NCI-60 single-dose screen; assay type: cell-based; conditions: Homo sapiens, single dose 10 µM, '-' = no inhibition, read-out: % Growth Inhibition
In short: as §1

786-0 = experiment: NCI-60 single-dose screen; assay type: cell-based; conditions: Homo sapiens, single dose 10 µM, '-' = no inhibition, read-out: % Growth Inhibition
In short: as §1

SK-MEL-5 = experiment: NCI-60 single-dose screen; assay type: cell-based; conditions: Homo sapiens, single dose 10 µM, '-' = no inhibition, read-out: % Growth Inhibition
In short: as §1

KM12 = experiment: NCI-60 single-dose screen; assay type: cell-based; conditions: Homo sapiens, single dose 10 µM, '-' = no inhibition, read-out: % Growth Inhibition
In short: as §1

NCI-H23 = experiment: NCI-60 single-dose screen; assay type: cell-based; conditions: Homo sapiens, single dose 10 µM, '-' = no inhibition, read-out: % Growth Inhibition
In short: as §1

NCI-H460 = experiment: NCI-60 single-dose screen; assay type: cell-based; conditions: Homo sapiens, single dose 10 µM, '-' = no inhibition, read-out: % Growth Inhibition
In short: as §1

SK-MEL-28 = experiment: NCI-60 single-dose screen; assay type: cell-based; conditions: Homo sapiens, single dose 10 µM, '-' = no inhibition, read-out: % Growth Inhibition
In short: as §1

SW-620 = experiment: NCI-60 single-dose screen; assay type: cell-based; conditions: Homo sapiens, single dose 10 µM, '-' = no inhibition, read-out: % Growth Inhibition
In short: as §1

ACHN 1 = experiment: NCI-60 single-dose screen; assay type: cell-based; conditions: Homo sapiens, single dose 10 µM, '-' = no inhibition, read-out: % Growth Inhibition
In short: as §1

A498 = experiment: NCI-60 single-dose screen; assay type: cell-based; conditions: Homo sapiens, single dose 10 µM, '-' = no inhibition, read-out: % Growth Inhibition
In short: as §1

TK-10 = experiment: NCI-60 single-dose screen; assay type: cell-based; conditions: Homo sapiens, single dose 10 µM, '-' = no inhibition, read-out: % Growth Inhibition
In short: as §1

OVCAR-4 = experiment: NCI-60 single-dose screen; assay type: cell-based; conditions: Homo sapiens, single dose 10 µM, '-' = no inhibition, read-out: % Growth Inhibition
In short: as §1

K-562 = experiment: NCI-60 single-dose screen; assay type: cell-based; conditions: Homo sapiens, K562, single dose 10 µM, '-' = no inhibition, read-out: % Growth Inhibition
In short: as §1

CCRF-CEM = experiment: NCI-60 single-dose screen; assay type: cell-based; conditions: Homo sapiens, single dose 10 µM, '-' = no inhibition, read-out: % Growth Inhibition
In short: as §1

OVCAR-5 = experiment: NCI-60 single-dose screen; assay type: cell-based; conditions: Homo sapiens, single dose 10 µM, '-' = no inhibition, read-out: % Growth Inhibition
In short: as §1

MOLT-4 = experiment: NCI-60 single-dose screen; assay type: cell-based; conditions: Homo sapiens, single dose 10 µM, '-' = no inhibition, read-out: % Growth Inhibition
In short: as §1

HL-60(TB) = experiment: NCI-60 single-dose screen; assay type: cell-based; conditions: Homo sapiens, single dose 10 µM, '-' = no inhibition, read-out: % Growth Inhibition
SF-268 = experiment: NCI-60 single-dose screen; assay type: cell-based; conditions: Homo sapiens, single dose 10 µM, '-' = no inhibition, read-out: % Growth Inhibition
In short: as §1

HCT-15 = experiment: NCI-60 single-dose screen; assay type: cell-based; conditions: Homo sapiens, single dose 10 µM, '-' = no inhibition, read-out: % Growth Inhibition
In short: as §1

NCI-H322M = experiment: NCI-60 single-dose screen; assay type: cell-based; conditions: Homo sapiens, single dose 10 µM, '-' = no inhibition, read-out: % Growth Inhibition
In short: as §1

MDA-MB-468 = experiment: NCI-60 single-dose screen; assay type: cell-based; conditions: Homo sapiens, single dose 10 µM, '-' = no inhibition, read-out: % Growth Inhibition
In short: as §1

Compound | inhibition at 10 µM (HT29) [%] | inhibition at 10 µM (UACC-62) [%] | inhibition at 10 µM (HOP-62) [%] | inhibition at 10 µM (SK-OV-3) [%] | inhibition at 10 µM (CAKI-1) [%] | inhibition at 10 µM (U251) [%] | inhibition at 10 µM (DU-145) [%] | inhibition at 10 µM (SK-MEL-2) [%] | inhibition at 10 µM (M14) [%] | inhibition at 10 µM (LOX IMVI) [%] | inhibition at 10 µM (SF-295) [%] | inhibition at 10 µM (HCC-2998) [%] | inhibition at 10 µM (T-47D) [%] | inhibition at 10 µM (NCI-H522) [%] | inhibition at 10 µM (786-0) [%] | inhibition at 10 µM (SK-MEL-5) [%] | inhibition at 10 µM (KM12) [%] | inhibition at 10 µM (NCI-H23) [%] | inhibition at 10 µM (NCI-H460) [%] | inhibition at 10 µM (SK-MEL-28) [%] | other results
COc1ccc(CSc2nc(-c3ccc(Cl)cc3)cc(-c3ccc(OC)cc3)n2)cc1 [Compound 15, 2-(4-Methoxybenzylthio)-4-(4-chlorophenyl)-6-(4-methoxyphenyl)pyrimidine] | 4.35 | < 0 | < 0 | < 0 | < 0 | < 0 | 0.47 | < 0 | < 0 | < 0 | < 0 | < 0 | < 0 | < 0 | < 0 | < 0 | < 0 | 4.6 | < 0 | < 0 | inhibition at 10 µM (SW-620): < 0%; inhibition at 10 µM (ACHN 1): 15.8%; inhibition at 10 µM (A498): < 0%; inhibition at 10 µM (TK-10): < 0%; inhibition at 10 µM (OVCAR-4): < 0%; inhibition at 10 µM (K-562): 12.8%; inhibition at 10 µM (CCRF-CEM): < 0%; inhibition at 10 µM (OVCAR-5): < 0%; inhibition at 10 µM (MOLT-4): 3.03%; inhibition at 10 µM (HL-60(TB)): 3.01%; inhibition at 10 µM (SF-268): < 0%; inhibition at 10 µM (HCT-15): 0.53%; inhibition at 10 µM (NCI-H322M): < 0%; inhibition at 10 µM (MDA-MB-468): < 0%; melting point: 278 to 280 °C
CCCSc1nc(-c2ccc(OC)cc2)cc(-c2cccc(OC)c2)n1 [Compound 18, 6-(3-Methoxyphenyl)-4-(4-methoxyphenyl)-2-(propylthio)pyrimidine] | 4.83 | < 0 | < 0 | < 0 | 4 | < 0 | < 0 | 3.6 | 9.08 | < 0 | < 0 | < 0 | 13.8 | < 0 | < 0 | 3.1 | 1.47 | < 0 | < 0 | < 0 | inhibition at 10 µM (SW-620): < 0%; inhibition at 10 µM (ACHN 1): < 0%; inhibition at 10 µM (A498): < 0%; inhibition at 10 µM (TK-10): < 0%; inhibition at 10 µM (OVCAR-4): 3.94%; inhibition at 10 µM (K-562): 12.8%; inhibition at 10 µM (CCRF-CEM): < 0%; inhibition at 10 µM (OVCAR-5): < 0%; inhibition at 10 µM (MOLT-4): 6.49%; inhibition at 10 µM (HL-60(TB)): 20.3%; inhibition at 10 µM (SF-268): < 0%; inhibition at 10 µM (HCT-15): 8.49%; inhibition at 10 µM (NCI-H322M): < 0%; inhibition at 10 µM (MDA-MB-468): < 0%; melting point: 218 to 220 °C
COc1ccc(-c2cc(-c3ccc(Cl)cc3)nc(SCc3ccccc3)n2)cc1OC [Compound 28, 2-(Benzylthio)-4-(4-chlorophenyl)-6-(3,4-dimethoxyphenyl)pyrimidine] | 18.7 | < 0 | < 0 | 2.92 | 25.7 | 13.1 | 8.2 | 12 | 0.81 | 8.32 | 7.84 | < 0 | 33 | 31.8 | 7.96 | 30.1 | 23.2 | 2.2 | 14.8 | 4.01 | inhibition at 10 µM (SW-620): 2.79%; inhibition at 10 µM (ACHN 1): 13.1%; inhibition at 10 µM (A498): 0.85%; inhibition at 10 µM (TK-10): < 0%; inhibition at 10 µM (OVCAR-4): 21.5%; inhibition at 10 µM (K-562): 30.9%; inhibition at 10 µM (CCRF-CEM): 17.4%; inhibition at 10 µM (OVCAR-5): 6.33%; inhibition at 10 µM (MOLT-4): 32.8%; inhibition at 10 µM (HL-60(TB)): 21.4%; inhibition at 10 µM (SF-268): 10.8%; inhibition at 10 µM (HCT-15): 27.6%; inhibition at 10 µM (NCI-H322M): < 0%; inhibition at 10 µM (MDA-MB-468): 6.53%; melting point: 239 to 241 °C
